The source of these data is patent US11420958B2, “Aryl and heteroaryl substituted indole compounds” (BRISTOL-MYERS SQUIBB COMPANY, priority 2017, dated 2022).

What is called IC50 is the concentration needed to halve the response being measured. Low readings indicate inhibition by little substance, high ones a need for much substance.

Format in all cases: cell-based
In assay [1] the target is human TLR8 (Homo sapiens (Human), UniProt Q9NR97). Briefly: TLR8 inhibition reporter assay (HEK-Blue, SEAP). To be noted: HEK-Blue cells overexpressing human TLR8, R848 15.9 μM stimulation. The procedure, abridged: (§1)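 Reporter cells, NF-κB/AP-1-driven SEAP; cmpd 0.05 nM–50 μM final, 30 min RT pre-treat; stim gardiquimod 7.5 μM (TLR7), R848 15.9 μM (TLR8), ODN2006 5 nM (TLR9); 22 h 37 °C; % inhibition of SEAP signal.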

The target in assay [2] is human TLR7 (Homo sapiens (Human), UniProt Q9NYK1). Briefly: TLR7 inhibition reporter assay (HEK-Blue, SEAP). Particulars: HEK-Blue cells overexpressing human TLR7, gardiquimod 7.5 μM stimulation. In a few lines:
as §1
(Reporter assays use an easily measured gene product as a stand-in for the process of interest.)

For assay [3], the target named is human TLR9 (Homo sapiens (Human), UniProt Q9NR96). The assay can be described thus: TLR9 inhibition reporter assay (HEK-Blue, SEAP). To be noted: HEK-Blue cells overexpressing human TLR9, ODN2006 5 nM stimulation. The procedure, abridged: as §1
Chain of human TLR9 (Q9NR96 26-1032): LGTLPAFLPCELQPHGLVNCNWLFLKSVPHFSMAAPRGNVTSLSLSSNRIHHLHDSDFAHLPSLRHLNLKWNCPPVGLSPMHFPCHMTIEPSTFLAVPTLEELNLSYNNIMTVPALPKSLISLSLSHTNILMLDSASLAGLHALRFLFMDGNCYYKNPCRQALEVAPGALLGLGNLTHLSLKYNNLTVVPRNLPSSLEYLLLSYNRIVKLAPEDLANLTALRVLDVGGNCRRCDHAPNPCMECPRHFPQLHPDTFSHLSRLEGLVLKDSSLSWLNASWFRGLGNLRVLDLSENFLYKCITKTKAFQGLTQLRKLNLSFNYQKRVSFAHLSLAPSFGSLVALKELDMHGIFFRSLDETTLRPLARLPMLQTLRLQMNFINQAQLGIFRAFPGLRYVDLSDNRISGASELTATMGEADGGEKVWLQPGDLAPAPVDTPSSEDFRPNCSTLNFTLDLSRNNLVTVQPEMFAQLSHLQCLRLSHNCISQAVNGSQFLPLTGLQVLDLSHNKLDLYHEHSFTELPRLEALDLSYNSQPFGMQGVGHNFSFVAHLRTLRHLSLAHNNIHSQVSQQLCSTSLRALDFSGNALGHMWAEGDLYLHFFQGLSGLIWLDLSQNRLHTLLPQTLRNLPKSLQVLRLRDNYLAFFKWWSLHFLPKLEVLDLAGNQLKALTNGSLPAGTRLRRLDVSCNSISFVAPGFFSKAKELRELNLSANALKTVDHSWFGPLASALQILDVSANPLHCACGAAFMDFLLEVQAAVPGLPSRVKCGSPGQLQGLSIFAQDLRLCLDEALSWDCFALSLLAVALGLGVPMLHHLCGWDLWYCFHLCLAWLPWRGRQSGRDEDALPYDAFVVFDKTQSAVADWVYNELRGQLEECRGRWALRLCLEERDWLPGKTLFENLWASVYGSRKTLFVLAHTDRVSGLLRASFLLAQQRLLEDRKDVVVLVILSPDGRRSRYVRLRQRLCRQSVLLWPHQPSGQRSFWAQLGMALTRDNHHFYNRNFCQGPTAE

Chain of human TLR8 (Q9NR97 27-1041): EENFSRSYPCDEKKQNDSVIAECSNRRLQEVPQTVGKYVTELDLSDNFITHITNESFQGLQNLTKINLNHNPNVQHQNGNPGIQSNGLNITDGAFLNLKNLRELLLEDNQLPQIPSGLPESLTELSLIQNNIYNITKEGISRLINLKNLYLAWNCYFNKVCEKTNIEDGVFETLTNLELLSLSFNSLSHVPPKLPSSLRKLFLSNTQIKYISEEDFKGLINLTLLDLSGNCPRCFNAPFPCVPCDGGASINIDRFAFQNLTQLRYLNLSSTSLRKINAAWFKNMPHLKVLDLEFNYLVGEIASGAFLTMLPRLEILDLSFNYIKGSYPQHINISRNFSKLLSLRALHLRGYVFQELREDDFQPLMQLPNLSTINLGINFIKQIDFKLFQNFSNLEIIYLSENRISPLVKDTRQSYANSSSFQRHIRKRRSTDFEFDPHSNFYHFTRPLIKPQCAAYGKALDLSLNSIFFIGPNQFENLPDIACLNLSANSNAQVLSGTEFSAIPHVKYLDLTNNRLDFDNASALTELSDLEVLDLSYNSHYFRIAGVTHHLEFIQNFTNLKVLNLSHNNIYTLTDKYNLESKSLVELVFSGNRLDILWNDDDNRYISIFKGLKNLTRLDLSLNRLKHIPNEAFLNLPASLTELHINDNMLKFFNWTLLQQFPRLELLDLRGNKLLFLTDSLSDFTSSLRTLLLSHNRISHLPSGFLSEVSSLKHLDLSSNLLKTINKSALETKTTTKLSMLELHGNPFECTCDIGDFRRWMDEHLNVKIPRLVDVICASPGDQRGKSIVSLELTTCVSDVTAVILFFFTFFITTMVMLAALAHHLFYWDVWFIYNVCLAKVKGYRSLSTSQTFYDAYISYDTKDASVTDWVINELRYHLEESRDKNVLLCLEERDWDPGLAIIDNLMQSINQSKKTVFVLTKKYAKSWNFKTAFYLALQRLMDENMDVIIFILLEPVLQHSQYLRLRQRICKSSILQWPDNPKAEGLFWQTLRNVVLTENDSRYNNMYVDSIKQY
Chain of human TLR7 (Q9NYK1 27-1049): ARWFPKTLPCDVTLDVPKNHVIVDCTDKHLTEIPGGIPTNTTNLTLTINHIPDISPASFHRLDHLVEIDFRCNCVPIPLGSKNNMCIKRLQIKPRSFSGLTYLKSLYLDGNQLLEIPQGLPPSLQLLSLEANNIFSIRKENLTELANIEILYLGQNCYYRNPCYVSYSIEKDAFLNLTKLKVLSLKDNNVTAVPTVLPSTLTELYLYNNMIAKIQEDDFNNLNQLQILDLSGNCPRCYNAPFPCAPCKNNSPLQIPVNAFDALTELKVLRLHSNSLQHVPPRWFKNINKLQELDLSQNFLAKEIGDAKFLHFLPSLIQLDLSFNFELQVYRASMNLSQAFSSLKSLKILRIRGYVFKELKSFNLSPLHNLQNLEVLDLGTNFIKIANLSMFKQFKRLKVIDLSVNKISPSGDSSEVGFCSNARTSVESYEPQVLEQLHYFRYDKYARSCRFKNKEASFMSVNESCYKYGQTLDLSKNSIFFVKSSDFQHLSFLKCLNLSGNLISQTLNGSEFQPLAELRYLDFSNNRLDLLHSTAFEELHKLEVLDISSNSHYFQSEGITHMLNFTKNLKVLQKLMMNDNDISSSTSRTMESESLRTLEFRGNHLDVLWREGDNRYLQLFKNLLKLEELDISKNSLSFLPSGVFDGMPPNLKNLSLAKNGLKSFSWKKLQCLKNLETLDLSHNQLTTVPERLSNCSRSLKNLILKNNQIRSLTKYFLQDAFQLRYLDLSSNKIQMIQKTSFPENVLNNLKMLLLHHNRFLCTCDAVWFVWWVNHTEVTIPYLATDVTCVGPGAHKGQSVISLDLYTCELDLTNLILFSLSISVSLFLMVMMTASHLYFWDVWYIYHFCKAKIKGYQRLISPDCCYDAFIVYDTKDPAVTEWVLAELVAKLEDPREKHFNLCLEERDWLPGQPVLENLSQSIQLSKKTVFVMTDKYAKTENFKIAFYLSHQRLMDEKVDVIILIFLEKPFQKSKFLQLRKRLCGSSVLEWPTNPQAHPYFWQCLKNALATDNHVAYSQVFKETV

For the compound `COc1ccc(-c2[nH]c3ccc(-c4nnc(C(=O)NCCNC(C)=O)o4)cc3c2C(C)C)cc1OC` [Example 100, N-(2-acetamidoethyl)-5-(2-(3,4-dimethoxyphenyl)-3-isopropyl-1H-indol-5-yl)-1,3,4-oxadiazole-2-carboxamide], the IC50 was 31 nM in assay [1], 844 nM in assay [2] and above 50000 nM in assay [3].

As to `COc1ccc(-c2[nH]c3ccc(-c4nnc(C(=O)NCCCn5ccnc5)o4)cc3c2C(C)C)cc1OC` [Example 101, N-(3-(1H-imidazol-1-yl)propyl)-5-(2-(3,4-dimethoxyphenyl)-3-isopropyl-1H-indol-5-yl)-1,3,4-oxadiazole-2-carboxamide], the values for the 50% inhibitory concentration (IC50) in assay [1], in assay [2] and in assay [3] were 14 nM, 55 nM and 3290 nM, respectively.

With `CC(C)c1c(-c2ccnc3[nH]ncc23)[nH]c2ccc(-c3nnc(C4CCNCC4)o3)cc12` [Example 102, 2-(3-isopropyl-2-(1H-pyrazolo[3,4-b]pyridin-4-yl)-1H-indol-5-yl)-5-(piperidin-4-yl)-1,3,4-oxadiazole], the 50% inhibitory concentration (IC50) in assay [1] was found to be 11 nM; in assay [2], 125 nM; in assay [3] it was 611 nM.

For the compound `CC(C)c1c(-c2ccnc3[nH]ncc23)[nH]c2ccc(-c3nnc([C@@H]4CCCNC4)o3)cc12` [Example 103, (R)-2-(3-isopropyl-2-(1H-pyrazolo[3,4-b]pyridin-4-yl)-1H-indol-5-yl)-5-(piperidin-3-yl)-1,3,4-oxadiazole], the results for the IC50 in assay [1], in assay [2] and in assay [3] were 5.4 nM, 54 nM and 166 nM, respectively.

Consider `CC(C)c1c(-c2ccnc3[nH]ncc23)[nH]c2ccc(-c3nnc(C[C@@H]4CCCN4)o3)cc12` [Example 104, (S)-2-(3-isopropyl-2-(1H-pyrazolo[3,4-b]pyridin-4-yl)-1H-indol-5-yl)-5-(pyrrolidin-2-ylmethyl)-1,3,4-oxadiazole], for which the IC50 came to 1.7 nM in assay [1], 31 nM in assay [2] and 150 nM in assay [3].

In the case of `COc1ccc(-c2[nH]c3ccc(-c4nnc(N5CCNCC5)o4)cc3c2C(C)C)cc1OC` [Example 105, 2-(2-(3,4-dimethoxyphenyl)-3-isopropyl-1H-indol-5-yl)-5-(piperazin-1-yl)-1,3,4-oxadiazole], the IC50 in assay [1] was 8.8 nM; in assay [2], 19 nM; in assay [3] it was 1070 nM.

Take `COc1ccc(-c2[nH]c3ccc(-c4nnc(C5CCN(Cc6ccccc6)CC5)[nH]4)cc3c2C(C)C)cc1OC` [Example 106, 5-(5-(1-benzylpiperidin-4-yl)-4H-1,2,4-triazol-3-yl)-2-(3,4-dimethoxyphenyl)-3-isopropyl-1H-indole]: the half-maximal inhibitory concentration (IC50) in assay [1] amounted to 45 nM; in assay [2], 138 nM; in assay [3], 1710 nM.

For the compound `COc1ccc(-c2[nH]c3ccc(-c4nnc(CN5CC6CNCC6C5)o4)cc3c2C(C)C)cc1OC` (stereo not drawn) [Example 107, 2-(2-(3,4-dimethoxyphenyl)-3-isopropyl-1H-indol-5-yl)-5-((hexahydropyrrolo[3,4-c]pyrrol-2(1H)-yl)methyl)-1,3,4-oxadiazole], the IC50 in assay [1] came to 23 nM; in assay [2] it was 228 nM; in assay [3] it was 2210 nM.

Consider `COc1ccc(-c2[nH]c3ccc(-c4nnc(CNCCNC(C)=O)o4)cc3c2C(C)C)cc1OC` [Example 108, N-(2-(((5-(2-(3,4-dimethoxyphenyl)-3-isopropyl-1H-indol-5-yl)-1,3,4-oxadiazol-2-yl)methyl)amino)ethyl)acetamide], for which the IC50 was 220 nM in assay [1], 1980 nM in assay [2] and above 50000 nM in assay [3].

With `COCCNCc1nnc(-c2ccc3[nH]c(-c4ccc(OC)c(OC)c4)c(C(C)C)c3c2)o1` [Example 109, N-((5-(2-(3,4-dimethoxyphenyl)-3-isopropyl-1H-indol-5-yl)-1,3,4-oxadiazol-2-yl)methyl)-2-methoxyethan-1-amine], the 50% inhibitory concentration (IC50) is 301 nM in assay [1], 4160 nM in assay [2] and above 50000 nM in assay [3].

Regarding `C#CCNCc1nnc(-c2ccc3[nH]c(-c4ccc(OC)c(OC)c4)c(C(C)C)c3c2)o1` [Example 110, N-((5-(2-(3,4-dimethoxyphenyl)-3-isopropyl-1H-indol-5-yl)-1,3,4-oxadiazol-2-yl)methyl)prop-2-yn-1-amine], the IC50 in assay [1] was 734 nM; in assay [2], 917 nM; in assay [3], above 50000 nM.

As to `CCOCCNCc1nnc(-c2ccc3[nH]c(-c4ccc(OC)c(OC)c4)c(C(C)C)c3c2)o1` [Example 111, N-((5-(2-(3,4-dimethoxyphenyl)-3-isopropyl-1H-indol-5-yl)-1,3,4-oxadiazol-2-yl)methyl)-2-ethoxyethan-1-amine], the IC50 in assay [1] is 266 nM; in assay [2], 157 nM; in assay [3] it was above 50000 nM.

As for `COc1ccc(-c2[nH]c3ccc(-c4nnc(CNCCOCCO)o4)cc3c2C(C)C)cc1OC` [Example 112, 2-(2-(((5-(2-(3,4-dimethoxyphenyl)-3-isopropyl-1H-indol-5-yl)-1,3,4-oxadiazol-2-yl)methyl)amino)ethoxy)ethan-1-ol], the IC50 was 82 nM in assay [1], 38 nM in assay [2] and above 50000 nM in assay [3].

`COc1ccc(-c2[nH]c3ccc(-c4nnc(CNCCS(=O)(=O)O)o4)cc3c2C(C)C)cc1OC` [Example 113, 2-(((5-(2-(3,4-dimethoxyphenyl)-3-isopropyl-1H-indol-5-yl)-1,3,4-oxadiazol-2-yl)methyl)amino)ethane-1-sulfonic acid]: the IC50 was 222 nM in assay [1], 219 nM in assay [2] and above 50000 nM in assay [3].

As to `COc1ccc(-c2[nH]c3ccc(-c4nnc(CNCCOC(C)C)o4)cc3c2C(C)C)cc1OC` [Example 114, N-((5-(2-(3,4-dimethoxyphenyl)-3-isopropyl-1H-indol-5-yl)-1,3,4-oxadiazol-2-yl)methyl)-2-isopropoxyethan-1-amine], the IC50 was 530 nM in assay [1], 386 nM in assay [2] and above 50000 nM in assay [3].

Consider `COc1ccc(-c2[nH]c3ccc(-c4nnc(CN5CCOCC5)o4)cc3c2C(C)C)cc1OC` [Example 115, 4-((5-(2-(3,4-dimethoxyphenyl)-3-isopropyl-1H-indol-5-yl)-1,3,4-oxadiazol-2-yl)methyl)morpholine], for which the IC50 was 202 nM in assay [1], 579 nM in assay [2] and above 50000 nM in assay [3].

In the case of `COc1ccc(-c2[nH]c3ccc(-c4nnc(CN5CCN(C(C)=O)CC5)o4)cc3c2C(C)C)cc1OC` [Example 116, 1-(4-((5-(2-(3,4-dimethoxyphenyl)-3-isopropyl-1H-indol-5-yl)-1,3,4-oxadiazol-2-yl)methyl)piperazin-1-yl)ethan-1-one], the IC50 is 395 nM in assay [1], 331 nM in assay [2] and above 50000 nM in assay [3].

For the compound `COc1ccc(-c2[nH]c3ccc(-c4nnc(CN5CC[C@H](NC(C)=O)C5)o4)cc3c2C(C)C)cc1OC` [Example 117, (S)—N-(1-((5-(2-(3,4-dimethoxyphenyl)-3-isopropyl-1H-indol-5-yl)-1,3,4-oxadiazol-2-yl)methyl)pyrrolidin-3-yl)acetamide], the IC50 in assay [1] is 50 nM; in assay [2], 704 nM; in assay [3], above 50000 nM.

As to `COCCN(CCOC)Cc1nnc(-c2ccc3[nH]c(-c4ccc(OC)c(OC)c4)c(C(C)C)c3c2)o1` [Example 118, N-((5-(2-(3,4-dimethoxyphenyl)-3-isopropyl-1H-indol-5-yl)-1,3,4-oxadiazol-2-yl)methyl)-2-methoxy-N-(2-methoxyethyl)ethan-1-amine], the IC50 in assay [1] amounted to 362 nM; in assay [2] it was 227 nM; in assay [3], 18600 nM.

For the compound `COc1ccc(-c2[nH]c3ccc(-c4nnc(CN5CCCN(C(C)=O)CC5)o4)cc3c2C(C)C)cc1OC` [Example 119, 1-(4-((5-(2-(3,4-dimethoxyphenyl)-3-isopropyl-1H-indol-5-yl)-1,3,4-oxadiazol-2-yl)methyl)-1,4-diazepan-1-yl)ethan-1-one], the IC50 in assay [1] was found to be 99 nM; in assay [2] it was 106 nM; in assay [3], 14400 nM.

As for `COc1ccc(-c2[nH]c3ccc(-c4nnc(CN5CCNC(=O)C5)o4)cc3c2C(C)C)cc1OC` [Example 120, 4-((5-(2-(3,4-dimethoxyphenyl)-3-isopropyl-1H-indol-5-yl)-1,3,4-oxadiazol-2-yl)methyl)piperazin-2-one], the IC50 in assay [1] was 222 nM; in assay [2], 371 nM; in assay [3] it was above 50000 nM.

With `COCCN(C)Cc1nnc(-c2ccc3[nH]c(-c4ccc(OC)c(OC)c4)c(C(C)C)c3c2)o1` [Example 121, N-((5-(2-(3,4-dimethoxyphenyl)-3-isopropyl-1H-indol-5-yl)-1,3,4-oxadiazol-2-yl)methyl)-2-methoxy-N-methylethan-1-amine], the IC50 in assay [1] is 166 nM; in assay [2] it was 108 nM; in assay [3], above 50000 nM.

On to `COc1ccc(-c2[nH]c3ccc(-c4nnc(CN5CCC[C@H]5C(N)=O)o4)cc3c2C(C)C)cc1OC` [Example 122, (S)-1-((5-(2-(3,4-dimethoxyphenyl)-3-isopropyl-1H-indol-5-yl)-1,3,4-oxadiazol-2-yl)methyl)pyrrolidine-2-carboxamide], for which the values for the concentration for half-maximal inhibition (IC50) in assay [1], in assay [2] and in assay [3] were 279 nM, 225 nM and above 50000 nM, respectively.

Turning to `C#CCN(C)Cc1nnc(-c2ccc3[nH]c(-c4ccc(OC)c(OC)c4)c(C(C)C)c3c2)o1` [Example 123, N-((5-(2-(3,4-dimethoxyphenyl)-3-isopropyl-1H-indol-5-yl)-1,3,4-oxadiazol-2-yl)methyl)-N-methylprop-2-yn-1-amine], the IC50 in assay [1] was 213 nM; in assay [2], 703 nM; in assay [3], above 50000 nM.
